Measured values from patent US20200283532A1, “TUMOUR-TARGETING PEPTIDE VARIANTS” (Cancer Research Technology Limited, priority 2017, published 2020).
Like-named read-outs stand apart in the source and are kept apart here.

What was measured:
[1] = target: T1, αvβ6 integrin (A375Pβ6 cells) (Homo sapiens, UniProt P06756+P18564); assay: Level of binding of biotinylated peptides to A375Pβ6 cells by flow cytometry; details: mean of up to four experiments; for A) Affinity: mean activity relative to biotinylated A20FMDV2 (100 nM): binding to A375Pβ6 at 100 nM, flow cytometry, commercial biotinylated A20FMDV2 = 1.00
T1 construct: expressed in transfected cells; host or cells: A375Pβ6 (transduced A375P melanoma cells; control line A375Ppuro)
T1 sequence (P06756 31-889 limits assumed, stated change not applied): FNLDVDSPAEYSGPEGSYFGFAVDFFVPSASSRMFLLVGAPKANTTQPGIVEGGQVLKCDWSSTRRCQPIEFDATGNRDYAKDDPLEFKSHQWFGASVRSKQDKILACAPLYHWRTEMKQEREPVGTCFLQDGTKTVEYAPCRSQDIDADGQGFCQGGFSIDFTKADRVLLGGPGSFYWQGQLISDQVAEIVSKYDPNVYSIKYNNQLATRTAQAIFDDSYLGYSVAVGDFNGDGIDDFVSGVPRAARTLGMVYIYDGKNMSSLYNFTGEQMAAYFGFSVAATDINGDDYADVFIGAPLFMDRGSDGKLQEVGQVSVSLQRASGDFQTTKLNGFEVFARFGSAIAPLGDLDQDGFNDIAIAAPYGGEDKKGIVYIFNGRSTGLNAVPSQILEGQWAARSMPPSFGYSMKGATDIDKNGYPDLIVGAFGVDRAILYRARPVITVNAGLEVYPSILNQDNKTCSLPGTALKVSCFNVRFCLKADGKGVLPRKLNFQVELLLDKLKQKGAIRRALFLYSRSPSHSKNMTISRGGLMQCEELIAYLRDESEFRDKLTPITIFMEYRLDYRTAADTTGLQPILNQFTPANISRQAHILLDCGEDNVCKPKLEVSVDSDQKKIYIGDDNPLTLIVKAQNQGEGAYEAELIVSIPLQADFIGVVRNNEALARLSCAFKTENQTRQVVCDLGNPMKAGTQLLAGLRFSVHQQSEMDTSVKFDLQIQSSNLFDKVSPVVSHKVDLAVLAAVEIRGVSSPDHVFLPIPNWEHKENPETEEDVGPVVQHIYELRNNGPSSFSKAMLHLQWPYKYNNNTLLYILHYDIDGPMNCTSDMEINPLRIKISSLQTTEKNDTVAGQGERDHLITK
T1 sequence (P06756 891-1048 limits assumed, stated change not applied): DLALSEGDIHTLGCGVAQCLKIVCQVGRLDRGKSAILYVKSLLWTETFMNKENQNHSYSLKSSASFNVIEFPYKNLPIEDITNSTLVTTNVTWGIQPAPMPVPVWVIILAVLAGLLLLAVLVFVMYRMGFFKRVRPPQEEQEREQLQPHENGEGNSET
T1 sequence (P18564 22-788, stated change not applied): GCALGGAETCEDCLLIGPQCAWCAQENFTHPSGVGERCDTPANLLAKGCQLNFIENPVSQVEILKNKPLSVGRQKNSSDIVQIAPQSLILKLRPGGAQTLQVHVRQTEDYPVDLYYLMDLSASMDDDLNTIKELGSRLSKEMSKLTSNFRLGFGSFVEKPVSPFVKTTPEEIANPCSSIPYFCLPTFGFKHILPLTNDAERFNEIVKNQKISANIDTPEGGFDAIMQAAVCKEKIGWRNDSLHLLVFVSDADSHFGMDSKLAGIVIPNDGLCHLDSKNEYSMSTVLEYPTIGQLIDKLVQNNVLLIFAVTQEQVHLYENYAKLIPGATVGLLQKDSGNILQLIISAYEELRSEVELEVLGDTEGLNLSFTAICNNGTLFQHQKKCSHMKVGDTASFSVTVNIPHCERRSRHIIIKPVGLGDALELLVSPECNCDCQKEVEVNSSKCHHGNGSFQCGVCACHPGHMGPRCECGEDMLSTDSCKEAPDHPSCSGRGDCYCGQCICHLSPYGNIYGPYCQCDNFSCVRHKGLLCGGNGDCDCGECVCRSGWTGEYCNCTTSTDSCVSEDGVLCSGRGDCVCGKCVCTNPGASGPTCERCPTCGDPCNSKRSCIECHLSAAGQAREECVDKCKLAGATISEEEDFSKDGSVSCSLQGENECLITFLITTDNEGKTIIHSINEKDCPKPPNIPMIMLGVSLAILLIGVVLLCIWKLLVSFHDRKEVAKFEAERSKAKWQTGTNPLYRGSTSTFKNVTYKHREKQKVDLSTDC

A375Pβ6 cells = type: cell-based
Method: Cells were trypsinised and resuspended into DMEM (serum-free media) to prepare a cell suspension of 4×10^6 cells/ml. From this point on everything was kept on ice. 50 μl of cell suspension were aliquoted into each flow tube. Peptides were diluted in ice-cold serum-free media to 200 nM giving the final concentration of 100 nM when 50 μl was added to the cell samples. The peptides were left on ice for 15 minutes then washed twice with flow media and centrifuged for 3 minutes at 1200 rpm in between each wash step. Mouse anti-biotin (50 μl at 1:200) was added to each sample for 15 minutes, then wash steps were repeated. Apart from the 0 time point, each of the time point samples were put in the incubator at 37° C. and at 15, 30 and 45 minutes the cells were fixed in 4% formaldehyde in PBS for 10 minutes, washed once in PBS and 0.1% Triton X-100 detergent added for 5 minutes, before washing in PBS again. Goat anti-mouse IgG conjugated to AlexaFLUOR 488 (1:250) was added (50 μl) to each sample and left for 15 minutes on ice in the dark. Samples were washed as above and resuspended to 30 μl. Samples were examined on an Imagestream X Mark II (Amnis, Merck) Imagestream images were assessed for internalisation compared with the 0 minute samples using on board software.
Internalisation Assay Method—Flow Cytometry
Cells were prepared as above except that no detergent was added prior to detecting the biotin with antibodies. Samples were analysed on a FACScalibur (Bekton-Dickinson) cytometer.
To assess ability to be internalized by cells at 37° C. (and thus potential vectors for therapies) we used Imagestream® cytometry and flow cytometry. Imagestream® takes a fluorescence image of each cell (FIG. 2C) enabling image analysis of the fluorescence on the surface versus the intracellular compartment. Histograms in FIG. 2C plot internalization relative to the 0 minute time point. For flow cytometry we monitored the loss of surface expression as the peptides were internalized.

[2] = tested on: A375Pβ6 (αvβ6) and A375Puro (control) xenografts; assay: Biodistribution of 111In-DTPA labelled peptides in tumour-bearing mice; type: in vivo, female CD1 Nu/Nu mice; details: 111In-DTPA peptide iv, mean ± SEM
Method: 2×10^6 cells in 100 μl were injected subcutaneously into the shoulders of female CD1 Nu/Nu mice. Tumours were grown subcutaneously on the left (A375Puro) and on the right (A375136) shoulder over two weeks. Once tumours had grown to approximately 5 mm diameter peptides were radiolabelled with Indium-111, and analysed by Radio-HPLC to determine labelling efficiency. The labelled peptides were diluted in sterile PBS/BSA and were dosed to give 0.3MBq per animal. Mice were then intravenously (tail-vein) injected with the radiolabelled peptide and are culled after 1 hour. Blood, organs and tumours were removed, weighed and residual activity was measured on a gamma counter (LKB Compugamma) the next day. Data were expressed as % Injected Dose/g tissue (% ID/g).
Immunocompromised mice (n=3-5) bearing A375Ppuro and A37546 tumours on opposite shoulders were given intravenous (iv) injections of […] of radiolabelled peptides 22-26 then killed 1 h later. Major organs and blood were collected immediately, weighed, and radioactivity determined. The data in Table 3 show the behaviour of the five DTPA-conjugated peptides tested; data are expressed as mean % injected dose/g tissue.

Substance	A) Affinity: mean activity relative to biotinylated A20FMDV2 (100 nM) [1]	B) Internalisation: mean % internalisation at 45 min relative to biotinylated A20FMDV2 (100 nM) (A375Pβ6 cells)	Relative Activity (A × B) (A375Pβ6 cells)	also measured
H2N-NK(Biotin)VPNLRGDLQV[norleucine]AQKVART-OH [Peptide 9]	1.16 ± 0.29	1.15 ± 0.04	1.33	
H2N-NK(Biotin)VPNLRGDLQVLAQKVARt-OH [Peptide 20]	0.53 ± 0.44	0.99 ± 0.25	0.53	
H2N-NK(Biotin)VPNLRGDLQVLAQKVART-NH2 [Peptide 17]		1.07 ± 0.40	1.31	Relative Activity value higher than the control peptide (A375Pβ6 cells): 31%
H2N-NK(Biotin)VPNLRGDLQV[aminoisobutyric acid]AQKVART-OH [Peptide 7]	1.07 ± 0.37	1.11 ± 0.3	1.19	
H2N-NK (Biotin) VPNLRGDLQV[norvaline]AQKVART-OH [Peptide 8]	0.77 ± 0.52	1.09 ± 0.17	0.84	
DTPA-GNK(Biotin)VPNLRGDLQVLAQKVART-OH [Peptide 23]	1.28 ± 0.23			Relative Activity (A × B) (A375Pβ6 cells; binding affinity value multiplied by amount internalized, commercial biotinylated A20FMDV2 = 1.00): 1.24; B) Internalisation: mean % internalisation at 45 min relative to biotinylated A20FMDV2 (100 nM) (A375Pβ6 cells; flow cytometry, 100 nM, 45 min at 37° C., commercial biotinylated A20FMDV2 = 1.00): 0.97 ± 0.11; Bio-distribution, Blood ([2]; 1 h): 0.5 ± 0.16 % ID/g; Bio-distribution, Heart ([2]; 1 h): 0.6 ± 0.16 % ID/g; Bio-distribution, Intestines ([2]; 1 h): 3.8 ± 0.98 % ID/g; Bio-distribution, Liver ([2]; 1 h): 0.4 ± 0.06 % ID/g; Bio-distribution, Lung ([2]; 1 h): 4.4 ± 0.72 % ID/g; Bio-distribution, Muscle ([2]; 1 h): 0.8 ± 0.07 % ID/g; Bio-distribution, Pancreas ([2]; 1 h): 0.5 ± 0.13 % ID/g; Bio-distribution, Spleen ([2]; 1 h): 0.2 ± 0.07 % ID/g; Bio-distribution, Stomach ([2]; 1 h): 6.4 ± 2.33 % ID/g; Bio-distribution, Tail ([2]; 1 h): 4.3 ± 2.85 % ID/g; Bio-distribution, Tumour (Control) ([2]; A375Puro xenograft, mice culled after 1 h): 0.5 ± 0.15 % ID/g; Bio-distribution, Tumour (αvβ6) ([2]; A375Pβ6 xenograft, mice culled after 1 h): 3.7 ± 0.29 % ID/g
H2N-nK(Biotin)VPNLRGDLQVLAQKVART-OH [Peptide 19]		0.89 ± 0.12		Average binding activity higher than the parent (commercially obtained biotinylated-A20FMDV2) ([1]; A375Pβ6, 100 nM): 43%; Relative Activity value higher than the control peptide (A375Pβ6 cells): 27%
H2N-nK(Biotin)VPNLRGDLQVLAQKVARt-OH [Peptide 21]		0.87 ± 0.27		Relative Activity value higher than the control peptide (A375Pβ6 cells): 37%
H2N-NK(Biotin)VPNLRGDLQVLAQKVART-OH [Peptide 1]	1.11 ± 0.15	0.84 ± 0.14	0.93	
H2N-NK(Biotin)VPNLRGDLQV[2-amino-3-ethylpentanoic acid]AQKVART-OH [Peptide 13]	0.70 ± 0.33	0.52 ± 0.23	0.37	
H2N-NK(Biotin)VPNLRGDLQVLAQ[diaminopropionic acid]VART-OH [Peptide 5]	0.79 ± 0.14	0.96 ± 0.31	0.76	
H2N-NK(Biotin)VPNLRGDLQV[homoleucine]AQKVART-OH [Peptide 12]	0.45 ± 0.22	0.66 ± 0.14	0.27	
H2N-NK(Biotin)VPNLRGDLQV[allylglycine]AQKVART-OH [Peptide 10]	0.58 ± 0.25	0.82 ± 0.25	0.48	
H2N-NK(Biotin)VPNLRGDLQVLAQ[ornithine]VART-OH [Peptide 3]	1.12 ± 0.16	0.86 ± 0.29	0.96	
AcHN-NK(Biotin)VPNLRGDLQVLAQKVART-NH2 [Peptide 18]	1.25 ± 0.26	0.87 ± 0.12	1.09	Relative Activity value higher than the control peptide (A375Pβ6 cells): 9%
AcHN-NK(Biotin)VPNLRGDLQVLAQKVART-OH [Peptide 16]		1.05 ± 0.24	1.55	Relative Activity value higher than the control peptide (A375Pβ6 cells): 55%
H2N-NK(Biotin)VPNLRGDLQV[adamantylglycine]AQKVART-OH [Peptide 15]	0.51 ± 0.28	1.07 ± 0.18	0.55	
H2N-NK(Biotin)VPNLRGDLQVLAQkVART-OH [Peptide 2]	1.11 ± 0.15	0.78 ± 0.15	0.87	
N-NK(Biotin)VPNLRGDLQVLAQ[diaminobutyric acid]VART-OH [Peptide 4]	1.00 ± 0.07	0.86 ± 0.29	0.86	
H2N-NK(Biotin)VPNLRGDLQV[cyclohexylalanine]AQKVART-OH [Peptide 14]	0.62 ± 0.06	1.01 ± 0.32	0.62	
H2N-NK(Biotin)VPNLRGDLQVLAQ-N-MeKVART-OH [Peptide 6]	0.37 ± 0.12	0.89 ± 0.32	0.32	
H2N-NK (Biotin) VPNLRGDLQV[tert-butyl-alanine]AQKVART-OH [Peptide 11]	0.60 ± 0.23	1.03 ± 0.14	0.62	
